Data as given in patent publication US12599672B2, “KRAS proteolysis targeting chimeras” (PAQ Therapeutics Inc., priority 2023, dated 2026).

Experiments:
Type in all cases: cell-based
[1] = molecular target: T1, KRAS (Homo sapiens, UniProt P01116); experiment: KRASamp MSD assay; conditions: KE39 (KRAS amplified) cells, treated with test compounds for 24 hr, MSD readout of KRAS degradation
T1 construct: endogenous in cells; host or cells: KE39 (KRAS amplified) cells
In short: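 Degradation DC50 derived by curve fitting, with KRAS levels quantified by MSD electrochemiluminescence (capture/detection antibodies, recombinant WT KRAS standard). Lysates prepared from KE39 cells (KRAS amplified) exposed to test compounds for 24 hr.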

[2] = molecular target: T2, KRAS G12D (Homo sapiens, UniProt P01116, G12D); experiment: KRAS G12D HiBit assay; conditions: AsPc-1-KRAS (G12D)-HiBit-KI cell, compound treatment for 24 hours, absolute DC50
T2 construct: AsPc-1-KRAS (G12D)-HiBit-KI cell (Pharmaron); host or cells: AsPc-1-KRAS (G12D)-HiBit-KI cells (HiBiT knock-in at the endogenous KRAS locus)
T2 sequence (P01116 1-188 isoform P01116-2 G12D): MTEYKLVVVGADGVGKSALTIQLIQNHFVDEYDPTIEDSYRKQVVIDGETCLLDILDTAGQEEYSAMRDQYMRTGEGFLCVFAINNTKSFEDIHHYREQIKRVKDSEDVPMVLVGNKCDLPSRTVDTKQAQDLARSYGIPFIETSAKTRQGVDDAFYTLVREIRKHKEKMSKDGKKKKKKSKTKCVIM
In short: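 HiBiT luminescence, detected by adding lytic buffer, substrate and LgBiT protein, served as the KRAS G12D read-out. Compounds, serially diluted 3-fold over 10 points from 0.3 mM DMSO stock, were on cells for 24 h; percent inhibition normalized to cells given 0.1% DMSO only.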

[3] = molecular target: T3, KRAS G12V (Homo sapiens, UniProt P01116, G12V); experiment: KRAS G12V HiBit assay; conditions: SW620-KRAS (G12V)-HiBit-KI cells, compound treatment for 24 hours, class symbols
T3 construct: SW620-KRAS (G12V)-HiBit-KI cell (Pharmaron); host or cells: SW620-KRAS (G12V)-HiBit-KI cells (HiBiT knock-in at the endogenous KRAS locus)
T3 sequence (P01116 1-188 isoform P01116-2 G12V): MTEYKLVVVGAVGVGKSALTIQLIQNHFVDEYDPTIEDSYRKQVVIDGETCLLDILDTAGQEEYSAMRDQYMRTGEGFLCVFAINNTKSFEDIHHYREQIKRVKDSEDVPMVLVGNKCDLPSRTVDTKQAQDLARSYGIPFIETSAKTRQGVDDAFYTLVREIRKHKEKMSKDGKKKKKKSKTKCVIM
In short: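 Luminescence from lytic Nano-Glo HiBiT detection with LgBiT read KRAS G12V levels after 24 h compound exposure. Dilutions were 10-point, 3-fold, from a 0.3 mM DMSO stock. Degradation activity was normalised to cells given 0.1% DMSO alone.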

[4] = numeric bounds given in place of class symbols

T1 sequence (P01116 1-188 isoform P01116-2): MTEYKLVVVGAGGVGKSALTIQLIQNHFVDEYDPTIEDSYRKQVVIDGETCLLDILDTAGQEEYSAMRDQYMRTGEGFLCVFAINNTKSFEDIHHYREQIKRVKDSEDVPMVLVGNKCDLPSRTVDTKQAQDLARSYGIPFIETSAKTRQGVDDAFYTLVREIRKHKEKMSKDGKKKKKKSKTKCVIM

SMILES | DC50 [1] [nM] | DC50 ([2]; class symbols) [nM] | DC50 [3] [nM] | DC50 [2, 4] [nM]
CCc1c(F)ccc2cc(O)cc(-c3ncc4c(N5CCCC(F)(F)C5)nc(OC[C@@]56CCCN5[C@H](COC(=O)N5CC7(CC(N8CCC(c9ccc%10c(c9)n(C)c(=O)n%10C9CCC(=O)NC9=O)CC8)C7)C5)CC6)nc4c3F)c12 (stereo partly drawn) [Compound 469, ((3S,7aS)-7a-(((4-(3,3-difluoropiperidin-1-yl)-7-(8-ethyl-7-fluoro-3-hydroxynaphthalen-1-yl)-8-fluoropyrido[4,3-d]pyrimidin-2-yl)oxy)methyl)hexahydro-1H-pyrrolizin-3-yl)methyl 6-(4-(1-(2,6-dioxopiperidin-3-yl)-3-methyl-2-oxo-2,3-dihydro-1H-benzo[d]imidazol-5-yl)piperidin-1-yl)-2-azaspiro[3.3]heptane-2-carboxylate] | < 1 | < 100 | < 10 | –
CCc1c(F)ccc2cc(O)cc(-c3ncc4c(N5CCC[C@@H](N)C5)nc(OC[C@@]56CCCN5[C@H](COC(=O)N5CCC7(CC5)CC(N5CCC(c8ccc9c(c8)n(C)c(=O)n9C8CCC(=O)NC8=O)CC5)C7)CC6)nc4c3F)c12 (stereo partly drawn) [Compound 476, ((3S,7aS)-7a-(((4-((R)-3-aminopiperidin-1-yl)-7-(8-ethyl-7-fluoro-3-hydroxynaphthalen-1-yl)-8-fluoropyrido[4,3-d]pyrimidin-2-yl)oxy)methyl)hexahydro-1H-pyrrolizin-3-yl)methyl 2-(4-(1-(2,6-dioxopiperidin-3-yl)-3-methyl-2-oxo-2,3-dihydro-1H-benzo[d]imidazol-5-yl)piperidin-1-yl)-7-azaspiro[3.5]nonane-7-carboxylate] | 1 to 10 | < 100 | < 10 | –
CCc1c(F)ccc2cc(O)cc(-c3ncc4c(N5CCC[C@H](N)C5)nc(OC[C@@]56CCCN5[C@H](COC(=O)N5CCC7(CC5)CC(N5CCC(c8ccc9c(c8)n(C)c(=O)n9C8CCC(=O)NC8=O)CC5)C7)CC6)nc4c3F)c12 (stereo partly drawn) [Compound 477, ((3S,7aS)-7a-(((4-((S)-3-aminopiperidin-1-yl)-7-(8-ethyl-7-fluoro-3-hydroxynaphthalen-1-yl)-8-fluoropyrido[4,3-d]pyrimidin-2-yl)oxy)methyl)hexahydro-1H-pyrrolizin-3-yl)methyl 2-(4-(1-(2,6-dioxopiperidin-3-yl)-3-methyl-2-oxo-2,3-dihydro-1H-benzo[d]imidazol-5-yl)piperidin-1-yl)-7-azaspiro[3.5]nonane-7-carboxylate] | ≥ 10 | – | > 100 | > 100
CCc1c(F)ccc2cc(O)cc(-c3ncc4c(N5CCC[C@@](C)(N)C5)nc(OC[C@@]56CCCN5[C@H](COC(=O)N5CCC7(CC5)CC(N5CCC(c8ccc9c(c8)n(C)c(=O)n9C8CCC(=O)NC8=O)CC5)C7)CC6)nc4c3F)c12 (stereo partly drawn) [Compound 479, ((3S,7aS)-7a-(((4-((R)-3-amino-3-methylpiperidin-1-yl)-7-(8-ethyl-7-fluoro-3-hydroxynaphthalen-1-yl)-8-fluoropyrido[4,3-d]pyrimidin-2-yl)oxy)methyl)hexahydro-1H-pyrrolizin-3-yl)methyl 2-(4-(1-(2,6-dioxopiperidin-3-yl)-3-methyl-2-oxo-2,3-dihydro-1H-benzo[d]imidazol-5-yl)piperidin-1-yl)-7-azaspiro[3.5]nonane-7-carboxylate] | ≥ 10 | – | > 100 | > 100

Next, values leading:

DC50 [1] [nM] | DC50 ([2]; class symbols) [nM] | DC50 [3] [nM] | DC50 [2, 4] [nM] | SMILES
< 1 | < 100 | < 10 | – | CCc1c(F)ccc2cc(O)cc(-c3ncc4c(N5CCCC(F)(F)C5)nc(OC[C@@]56CCCN5[C@H](COC(=O)N5CCC7(CC5)CC(N5CCC(c8ccc9c(c8)n(C)c(=O)n9C8CCC(=O)NC8=O)CC5)C7)CC6)nc4c3F)c12 (stereo partly drawn) [Compound 470, ((3S,7aS)-7a-(((4-(3,3-difluoropiperidin-1-yl)-7-(8-ethyl-7-fluoro-3-hydroxynaphthalen-1-yl)-8-fluoropyrido[4,3-d]pyrimidin-2-yl)oxy)methyl)hexahydro-1H-pyrrolizin-3-yl)methyl 2-(4-(1-(2,6-dioxopiperidin-3-yl)-3-methyl-2-oxo-2,3-dihydro-1H-benzo[d]imidazol-5-yl)piperidin-1-yl)-7-azaspiro[3.5]nonane-7-carboxylate]
1 to 10 | < 100 | > 100 | – | CCc1c(F)ccc2cc(O)cc(-c3ncc4c(N5CCC[C@@](C)(O)C5)nc(OC[C@@]56CCCN5[C@H](CN5CCC7(CC5)CC(N5CCC(c8ccc9c(c8)n(C)c(=O)n9C8CCC(=O)NC8=O)CC5)C7)CC6)nc4c3F)c12 (stereo partly drawn) [Compound 471, 3-(5-(1-(7-(((3S,7aS)-7a-(((7-(8-Ethyl-7-fluoro-3-hydroxynaphthalen-1-yl)-8-fluoro-4-((R)-3-hydroxy-3-methylpiperidin-1-yl)pyrido[4,3-d]pyrimidin-2-yl)oxy)methyl)hexahydro-1H-pyrrolizin-3-yl)methyl)-7-azaspiro[3.5]nonan-2-yl)piperidin-4-yl)-3-methyl-2-oxo-2,3-dihydro-1H-benzo[d]imidazol-1-yl) piperidine-2,6-dione]
1 to 10 | < 100 | 10 to 100 | – | CCc1c(F)ccc2cc(O)cc(-c3ncc4c(N5CCC[C@@](C)(O)C5)nc(OC[C@]56CCCN5[C@H](CCCN5CCC(c7ccc8c(c7)n(C)c(=O)n8C7CCC(=O)NC7=O)CC5)CC6)nc4c3F)c12 (stereo partly drawn) [Compound 473, 3-(5-(1-(3-((3R,7aR)-7a-(((7-(8-Ethyl-7-fluoro-3-hydroxynaphthalen-1-yl)-8-fluoro-4-((R)-3-hydroxy-3-methylpiperidin-1-yl)pyrido[4,3-d]pyrimidin-2-yl)oxy)methyl)hexahydro-1H-pyrrolizin-3-yl)propyl)piperidin-4-yl)-3-methyl-2-oxo-2,3-dihydro-1H-benzo[d]imidazol-1-yl) piperidine-2,6-dione]
< 1 | < 100 | < 10 | – | Cn1c(=O)n(C2CCC(=O)NC2=O)c2ccc(C3CCN(C4CC5(CCN(C(=O)OC[C@@H]6CC[C@]7(COc8nc(N9CCC[C@@](C)(O)C9)c9cnc(-c%10cc(O)cc%11ccc(F)cc%10%11)cc9n8)CCCN67)CC5)C4)CC3)cc21 (stereo partly drawn) [Compound 474, ((3S,7aS)-7a-(((7-(7-fluoro-3-hydroxynaphthalen-1-yl)-4-((R)-3-hydroxy-3-methylpiperidin-1-yl)pyrido[4,3-d]pyrimidin-2-yl)oxy)methyl)hexahydro-1H-pyrrolizin-3-yl)methyl 2-(4-(1-(2,6-dioxopiperidin-3-yl)-3-methyl-2-oxo-2,3-dihydro-1H-benzo[d]imidazol-5-yl)piperidin-1-yl)-7-azaspiro[3.5]nonane-7-carboxylate]
< 1 | < 100 | < 10 | – | CCc1c(F)ccc2cc(O)cc(-c3ncc4c(N5CCC[C@](C)(N)C5)nc(OC[C@@]56CCCN5[C@H](COC(=O)N5CCC7(CC5)CC(N5CCC(c8ccc9c(c8)n(C)c(=O)n9C8CCC(=O)NC8=O)CC5)C7)CC6)nc4c3F)c12 (stereo partly drawn) [Compound 478, ((3S,7aS)-7a-(((4-((S)-3-amino-3-methylpiperidin-1-yl)-7-(8-ethyl-7-fluoro-3-hydroxynaphthalen-1-yl)-8-fluoropyrido[4,3-d]pyrimidin-2-yl)oxy)methyl)hexahydro-1H-pyrrolizin-3-yl)methyl 2-(4-(1-(2,6-dioxopiperidin-3-yl)-3-methyl-2-oxo-2,3-dihydro-1H-benzo[d]imidazol-5-yl)piperidin-1-yl)-7-azaspiro[3.5]nonane-7-carboxylate]
